Results taken from US20260041669A1, “SOLID FORMS OF A CDK INHIBITOR” (Relay Therapeutics, Inc., priority 2022, published 2026).
Values after ≈ are worked out from the molar mass of the structure shown. Values joined by “and” are separate entries in the source; they are usually repeats but may differ in a detail not shown here. Equal values may be shown once. Read-outs that look alike come from different tables or passages of the source.

Experiment: Thermodynamic solubility of cocrystals (HPLC quantitation)
Type: physicochemical
Conditions: for solubility at 24 h: thermodynamic from solid
Method: Base Buffer (FaSSGF), pH 1.6—Sodium chloride (2.03 g) was dissolved in Ca. 800 ml of deionised water in a 1 L volumetric flask. This solution was mixed thoroughly and then the pH adjusted to 1.6±0.05 with concentrated hydrochloric acid. The solution was then made to volume with deionised water and the pH recorded (pH 1.6).
FaSSGF Media—Phares SIF (simulated intestinal fluid) powder (0.06 g) was dissolved in Ca. 800 ml of base buffer (2.1.1) in a 1 L volumetric flask. This solution was mixed thoroughly and then made to volume with the same base buffer. The final pH was recorded (pH 1.7)
Acetate Base Buffer (FeSSIF), pH 5.0—Sodium hydroxide (11.90 g), acetic acid (8.25 ml) and sodium chloride (3.96 g) were dissolved in Ca. 800 ml of deionised water in a 1 L volumetric flask. This solution was mixed thoroughly and then the pH adjusted to 5.0±0.05 with 0.5M hydrochloric acid. The solution was then made to volume with deionised water and the pH recorded (pH 5.0)
FeSSIF Media—Phares SIF (simulated intestinal fluid) powder (1.12 g) was dissolved in Ca. 80 ml of base buffer (2.2.1) in a 100 ml volumetric flask. This solution was mixed thoroughly and then made to volume with the same base buffer. The final pH was recorded (pH 4.8)
Phosphate Base Buffer (FeSSIF), pH 6.5—Sodium hydroxide (0.41 g), sodium phosphate monobasic (3.95 g) and sodium chloride (6.49 g) were dissolved in Ca. 800 ml of deionised water in a 1 L volumetric flask. This solution was mixed thoroughly and then the pH adjusted to 6.5 f 0.05 with 0.5M hydrochloric acid. The solution was then made to volume with deionised water and the pH recorded (pH 6.5)
FaSSIF Media—Phares SIF (simulated intestinal fluid) powder (0.23 g) was dissolved in Ca. 80 ml of base buffer ([00300]) in a 100 ml volumetric flask. This solution was mixed thoroughly and then made to volume with the same base buffer. The final pH was recorded (pH 6.3)
DI Water (deionized water)—The pH was recorded (pH 6.1)
Thermodynamic Solubility—Sufficient sample was suspended in 0.5 ml media for a maximum anticipated concentration of Ca. 10 mg/ml of the free form of the compound. The resulting suspensions were then shaken at 25° C./750 rpm for 24 hours in DI H2O and at 37° C./750 rpm for 24 hours in simulated fluids. After equilibration, the appearance was noted, and the pH of the saturated solution was measured. Samples were then filtered through a glass ‘C’ fibre filter (Particle retention 1.2 μm), before dilution with buffer as appropriate.
Quantitation was by HPLC with reference to a standard solution of approximately 0.15 mg/ml. Different volumes of the standards and diluted sample solutions were injected. The solubility was calculated using the peak areas determined by integration of the peak found at the same retention time as the principal peak in the standard injection.
The results from the solubility measurements in deionized water (DI water), stimulated fasting state conditions in the gastric fluid (FaSGF), simulated fed state conditions in the small intestines (FeSSIF), and simulated fasting state conditions in the small intestines fluid (FaSSIF) are summarized in Table 16.

[1] = DI Water, shaken at 25° C./750 rpm for 24 hours, average
[2] = DI Water, shaken at 25° C./750 rpm for 24 hours, single replicate
[3] = FaSSGF, shaken at 37° C./750 rpm for 24 hours, average
[4] = FaSSGF, shaken at 37° C./750 rpm for 24 hours, single replicate
[5] = FaSSIF, shaken at 37° C./750 rpm for 24 hours, average
[6] = FaSSIF, shaken at 37° C./750 rpm for 24 hours, single replicate
[7] = FeSSIF, shaken at 37° C./750 rpm for 24 hours, average
[8] = FeSSIF, shaken at 37° C./750 rpm for 24 hours, single replicate

Row | Average Solubility [1] [µg/mL] | Solubility [2] [µg/mL] | Average Solubility [3] [µg/mL] | Solubility [4] | Average Solubility [5] [µg/mL] | Solubility [6] [µg/mL] | Average Solubility [7] [µg/mL] | Solubility [8] | solubility at 24 h (FaSSGF (simulated gastric fluid, fasted state), 37 °C, pH 1.7, fassgf or other biorelevant, FaSSGF, shaken at 37° C./750 rpm for 24 hours, average, read-out: Average Solubility) [µg/mL] | solubility at 24 h (FaSSGF (simulated gastric fluid, fasted state), 37 °C, pH 1.7, fassgf or other biorelevant, FaSSGF, shaken at 37° C./750 rpm for 24 hours, single replicate, read-out: Solubility) [µg/mL] | solubility at 24 h (FaSSIF (simulated intestinal fluid, fasted state), 37 °C, pH 6.3, fassif, FaSSIF, shaken at 37° C./750 rpm for 24 hours, average, read-out: Average Solubility) [µg/mL] | solubility at 24 h (FaSSIF (simulated intestinal fluid, fasted state), 37 °C, pH 6.3, fassif, FaSSIF, shaken at 37° C./750 rpm for 24 hours, single replicate, read-out: Solubility) [µg/mL] | solubility at 24 h (FeSSIF (simulated intestinal fluid, fed state), 37 °C, pH 4.8, fessif, FeSSIF, shaken at 37° C./750 rpm for 24 hours, average, read-out: Average Solubility) [µg/mL] | solubility at 24 h (deionized water, 25 °C, pH 6.1, water, DI Water, shaken at 25° C./750 rpm for 24 hours, average, read-out: Average Solubility) [µg/mL] | solubility at 24 h (deionized water, 25 °C, pH 6.1, water, DI Water, shaken at 25° C./750 rpm for 24 hours, single replicate, read-out: Solubility) [µg/mL] | Compound
1 | 290 | 290 (≈ 622 µM) | 370 | 370 µg/mL and 360 µg/mL | 290 | 280 (≈ 600 µM) | 880 | 940 µg/mL and 820 µg/mL |  |  |  |  |  |  |  | Cn1nc(OCC(F)F)cc1C(=O)Nc1cc([C@H]2C[C@@H](OC(=O)NC34CC(C3)C4)CO2)n[nH]1 [Compound I-4 Form A]
2 |  | 300 (≈ 643 µM) | 390 | 380 µg/mL and 390 µg/mL |  |  | 490 | 620 µg/mL and 360 µg/mL |  |  |  |  |  | 300 (≈ 643 µM) | 290 (≈ 622 µM) | Cn1nc(OCC(F)F)cc1C(=O)Nc1cc([C@H]2C[C@@H](OC(=O)NC34CC(C3)C4)CO2)n[nH]1 [Componud I-3 Form A]

Second part, the molecule before the results:

Row | Compound | Average Solubility [1] [µg/mL] | Solubility [2] [µg/mL] | Average Solubility [3] [µg/mL] | Solubility [4] | Average Solubility [5] [µg/mL] | Solubility [6] [µg/mL] | Average Solubility [7] [µg/mL] | Solubility [8] | solubility at 24 h (FaSSGF (simulated gastric fluid, fasted state), 37 °C, pH 1.7, fassgf or other biorelevant, FaSSGF, shaken at 37° C./750 rpm for 24 hours, average, read-out: Average Solubility) [µg/mL] | solubility at 24 h (FaSSGF (simulated gastric fluid, fasted state), 37 °C, pH 1.7, fassgf or other biorelevant, FaSSGF, shaken at 37° C./750 rpm for 24 hours, single replicate, read-out: Solubility) [µg/mL] | solubility at 24 h (FaSSIF (simulated intestinal fluid, fasted state), 37 °C, pH 6.3, fassif, FaSSIF, shaken at 37° C./750 rpm for 24 hours, average, read-out: Average Solubility) [µg/mL] | solubility at 24 h (FaSSIF (simulated intestinal fluid, fasted state), 37 °C, pH 6.3, fassif, FaSSIF, shaken at 37° C./750 rpm for 24 hours, single replicate, read-out: Solubility) [µg/mL] | solubility at 24 h (FeSSIF (simulated intestinal fluid, fed state), 37 °C, pH 4.8, fessif, FeSSIF, shaken at 37° C./750 rpm for 24 hours, average, read-out: Average Solubility) [µg/mL] | solubility at 24 h (deionized water, 25 °C, pH 6.1, water, DI Water, shaken at 25° C./750 rpm for 24 hours, average, read-out: Average Solubility) [µg/mL] | solubility at 24 h (deionized water, 25 °C, pH 6.1, water, DI Water, shaken at 25° C./750 rpm for 24 hours, single replicate, read-out: Solubility) [µg/mL]
3 | Cn1nc(OCC(F)F)cc1C(=O)Nc1cc([C@H]2C[C@@H](OC(=O)NC34CC(C3)C4)CO2)n[nH]1 [Compound 1-6 Form A] | 330 | 330 (≈ 707 µM) | 320 | 320 µg/mL (≈ 686 µM) | 310 | 310 (≈ 665 µM) | 700 | 660 µg/mL and 730 µg/mL |  |  |  |  |  |  | 
4 | Cn1nc(OCC(F)F)cc1C(=O)Nc1cc([C@H]2C[C@@H](OC(=O)NC34CC(C3)C4)CO2)n[nH]1 [Compound I-2 Form A] | 210 | 210 (≈ 450 µM) |  | 350 µg/mL (≈ 750 µM) |  |  |  | 920 µg/mL and 850 µg/mL | 350 (≈ 750 µM) | 340 (≈ 729 µM) | 290 (≈ 622 µM) | 290 (≈ 622 µM) | 890 (≈ 1910 µM) |  | 
5 | Cn1nc(OCC(F)F)cc1C(=O)Nc1cc([C@H]2C[C@@H](OC(=O)NC34CC(C3)C4)CO2)n[nH]1 [Compound 1-5 Form A] | 280 | 280 (≈ 600 µM) | 310 | 310 µg/mL (≈ 665 µM) | 250 | 240 (≈ 515 µM) | 820 | 840 µg/mL and 800 µg/mL |  |  |  |  |  |  | 
